Results published in patent US20260217701A1, “SELECTIVE BET INHIBITORS AND USES THEREOF” (Tay Therapeutics Limited, priority 2022, published 2026).
Values joined by “and” are separate entries in the source; they are usually repeats but may differ in a detail not shown here. Equal entries are not always repeated. “Also recorded” adds a separate entry of the source. Marks after values point to notes of the source that are not given here.

Columns and labels:
[1] = test system: idiopathic pulmonary fibrosis (bleomycin); test: Bleomycin IPF model: functional lung volume by micro-CT; format: in vivo, C57BI/6J mice; design: Functional Lung Volume, Mean: unit not given here; conditions: Day 21
Method: Animals were acclimated for two weeks prior to study initiation, and were randomized into the experimental groups outlined in Table 32. Intratracheal (IT) administration of Bleo or PBS control was conducted at the start of the study (Day 0). […] Following administration of Bleo, animals (n=10/group) were included in the study if they met the following guidelines on Day 7: […] Micro-CT imaging was also performed on Day 7 to determine relative fibrosis and on Day 21. […] Images were acquired with a respiratory gated technique with the following parameters: X-ray tube voltage: 90 KV; X-ray tube current: 88 μA; total scan time: 4 minutes. The system was calibrated monthly with standard phantoms for noise, uniformity, low contrast, and resolution to ensure consistency.

[2] = test system: IL-22, IFNγ, TNF, IL-17A, IL-12/IL-23p40; test: EAE study: serum cytokine analysis (Luminex); format: in vivo, C57BI/6 mice
Method: Experimental Method H: EAE in animals treated with a BET inhibitor and vehicle. Animals were assigned to the groups outlined in Table 38.
Compound A may be formulated as illustrated in Experimental Method A (see Table 2E.). A 40 mg/mL stock solution of Compound A in DMSO was prepared and aliquots stored at −20° C. On each day of preparation an e.g., 0.75 mL aliquot of thawed stock was diluted with an equal volume of DMSO. The remaining vehicle components were added to provide the highest dose and then diluted with vehicle to provide lower doses. A 30 mg/mL stock solution of FTY720 in ethanol was prepared and stored at −20° C. Daily, the stock solution was diluted with room temperature water to a final dosing concentration of 0.6 mg/mL. Formulated Compound A, FTY720 and vehicle were each at room temperature for dosing.
Female C57BI/6 mice (9 weeks old) were acclimated for seven days prior to study initiation. On Day-1, animals were assigned to groups in a balanced manner to achieve similar average weights across the different groups. Chronic EAE was induced in female C57BI/6 mice following immunization with an emulsion of MOG35-55/CFA on Day 0, followed by an injection of pertussis toxin two hours after the initial immunization. On Day 1, a second injection of pertussis toxin was administered 24 hours after the initial immunization. Mice were injected subcutaneously at two sites on the back with the MOG35-55/CFA emulsion (Hooke Kit™ MOG35-55/CFA Emulsion PTX). The first injection site was located approximately 1 cm caudal of the neckline (upper back), and the second injection site was approximately 2 cm cranial of the base of the tail (lower back). The injection volume was 0.1 mL for each injection. The pertussis toxin was administered at the described times through intraperitoneal injection at a concentration of 85 ng/dose for both injections.
On Day 28, all surviving mice except those in the FTY720 group had blood collected via retro-orbital sinus into serum separator tubes. Serum was isolated, frozen on dry ice, and stored at −80° C. for cytokine analysis. Cytokine analysis was performed using Luminex in serum samples, and the cytokines IL-22, IFNγ, TNF, IL-17A, IL-12/IL-23p40 were assessed.

BET BD2 = test: Comparison with other BET inhibitors in development (EC50, selectivity, oral bioavailability; public information)
[3] = CIA study: clinical observations; format: in vivo, Lewis rats; conditions: CIA rats
renal fibrosis (UUO) = test: Unilateral Urethral Obstruction (UUO) model of renal fibrosis: clinical histopathology scores; format: in vivo, rats; design: key to Glomerulosclerosis clinical score / Interstitial nephritis clinical score / Collagen fiber deposition clinical score / Nephropathy clinical score: 0=no more or absence; 1=low; 2=moderate; 3=high; 4=severe
Method: Starting on Day 0, animals in group 2 were administered daily doses of the vehicle for 14 days. Starting on Day 0, animals in group 3 were administered daily doses of Compound A (10 mg/kg) for 14 days. A design of the UUO study is depicted in FIG. 24.
Blind clinical nephropathy scores were conducted for all animals in the study. Glomerulosclerosis, interstitial nephritis, collagen fiber deposition, and nephropathy were each assessed for all experimental rats, and a total clinical score was determined for each rat. The scoring system represented the degree or percentage of lesions in the whole kidney. Clinical score assessments were performed on Day 14.

[4] = UUO rats, individual animals 1-8

## Cn1cc(-c2ccccc2)c(-c2cn(C)c(=O)c3[nH]c(-c4cnn(C(F)(F)F)c4)cc23)cc1=O [Compound A, 6-methyl-4-(1-methyl-2-oxo-5-phenyl-1,2-dihydropyridin-4-yl)-2-(1-(trifluoromethyl)-1H-pyrazol-4-yl)-1,6-dihydro-7H-pyrrolo[2,3-c]pyridin-7-one]
[1]; Bleo + Compound A (1 mg/kg) OG QOD from D7
  Functional Lung Volume, Mean: 283.165
[1]; Bleo + Compound A (3 mg/kg) OG QOD from D7
  Functional Lung Volume, Mean: 343.5975
[1]; Bleo + Compound A (10 mg/kg) OG QOD from D7
  Functional Lung Volume, Mean: 452.7838
[1]; Group 5, 10 mg/kg
  Mean improvement in functional lung volume compared to Group 2: ~52.7%
[2]; Compound A 1 mg/kg, Day 28
  IFNγ Mean Concentration (pg/mL) and (SEM): 1.9 (0.8) pg/mL
  IL-12/IL-23p40 Mean Concentration (pg/mL) and (SEM): 34.7 (4.8)* pg/mL
  IL-17A Mean Concentration (pg/mL) and (SEM): 0.5 (0.3) pg/mL
  IL-22 Mean Concentration (pg/mL) and (SEM): 3.5 (1.4) pg/mL
  TNF Mean Concentration (pg/mL) and (SEM): 0.8 (0.4) pg/mL
[2]; Compound A 3 mg/kg, Day 28
  IFNγ Mean Concentration (pg/mL) and (SEM): 1.8 (0.4)* pg/mL
  IL-12/IL-23p40 Mean Concentration (pg/mL) and (SEM): 27.7 (4.9)** pg/mL
  IL-17A Mean Concentration (pg/mL) and (SEM): 1.6 (0.9) pg/mL
  IL-22 Mean Concentration (pg/mL) and (SEM): 6.1 (3.0) pg/mL
  TNF Mean Concentration (pg/mL) and (SEM): 1.4 (0.4) pg/mL
[2]; Compound A 10 mg/kg, Day 28
  IFNγ Mean Concentration (pg/mL) and (SEM): 0.6 (0.1)*** pg/mL
  IL-12/IL-23p40 Mean Concentration (pg/mL) and (SEM): 17.4 (1.5)*** pg/mL
  IL-17A Mean Concentration (pg/mL) and (SEM): 0.4 (0.3) pg/mL
  IL-22 Mean Concentration (pg/mL) and (SEM): 3.0 (0.7) pg/mL
  TNF Mean Concentration (pg/mL) and (SEM): 0.4 (0.1) pg/mL
[2]; Day 28
  Concentration of IL-22, TNF, and IL-17A relative to vehicle: nor were significant changes measured
[2]; Day 28, 1 mg/kg, 3 mg/kg, and 10 mg/kg
  Concentration of IL-12/IL23p40: dose dependent significant decreases
[2]; Day 28, 3 mg/kg and 10 mg/kg
  IFNγ concentrations: dose dependent significant decrease
BET BD2; same comparators
  selectivity relative to other BET inhibitors: higher selectivity
BET BD2; vs NUV-868, ABBV-744, GSK620, Pelabresib, ABBV-075, MK-8628/OTX-015, BI-894999
  EC50 relative to other BET inhibitors: lower EC50
[3]; 1 mg/kg, Day 16
  Clinical observations: Diarrhea
[3]; 3 mg/kg, Day 13
  Clinical observations: Diarrhea
[3]; 3 mg/kg, Day 14
  Clinical observations: Diarrhea
[3]; 3 mg/kg, Day 15
  Clinical observations: Diarrhea
[3]; 3 mg/kg, Day 16
  Clinical observations: Diarrhea
[3]; 3 mg/kg, Day 21
  Clinical observations: Diar-
[3]; 10 mg/kg, Day 12
  Clinical observations: Diarrhea
[3]; 10 mg/kg, Day 13
  Clinical observations: Diarrhea
[3]; 10 mg/kg, Day 14
  Clinical observations: Diarrhea
[3]; 10 mg/kg, Day 15
  Clinical observations: Diarrhea
[3]; 10 mg/kg, Day 16
  Clinical observations: Diarrhea
[3]; 10 mg/kg, Day 17
  Clinical observations: Diarrhea
[3]; 10 mg/kg, Day 18
  Clinical observations: Diarrhea
Renal fibrosis (UUO); UUO + Compound A (10 mg/kg) relative to sham treated animals
  Total histology score (FIG. 26D): marked decrease in total histology score
Renal fibrosis (UUO); [4]
  Collagen fiber deposition clinical score: 1 (4×) and 2 (3×) and 3
  Glomerulosclerosis clinical score: 0
  Interstitial nephritis clinical score: 2 (4×) and 3 (4×)
  Nephropathy clinical score: 1 and 2 (7×)
  Total score: 4 and 7 (3×) and 5 (3×) and 8
Renal fibrosis (UUO); UUO rats, 10 mg/kg PO QD, 10 mg/kg
  Clinical histopathology scores / histological indicators of fibrosis relative to UUO + vehicle: reduced levels of interstitial nephritis, collagen fiber deposition, and nephropathy, as well as total clinical scores; also recorded: reduced the severity of all histological indicators of fibrosis; also recorded: ameliorates clinical symptoms associated with UUO
